Several values for one entry are separate records, joined by “and”; a condition that tells them apart may be missing. Equal entries are not always repeated. Records with an inconclusive call do not appear.
System: CD8F1 mice, subcutaneous mammary adenocarcinoma, T/C%
Assay: NCI In Vivo Anticancer Drug Screen. Data for tumor model Mammary Adenocarcinoma CD8F1 (subcutaneous) in CD8F1
Conditions: higher = larger tumour
Procedure, shortened: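 Mice carrying transplanted tumors received test compound, and survival or tumor size was recorded. Each value is the treated-group measurement divided by the corresponding measurement in vehicle-dosed controls.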

[1] = endpoint: median tumor weight (est.), dose: 12.5 mg/kg/injection, schedule: Q07DX005 (ip), vehicle: Klucel (hydroxypropylcellulose) (HPC)
[2] = endpoint: median tumor weight (est.), dose: 25.0 mg/kg/injection, schedule: Q07DX005 (ip), vehicle: Klucel (hydroxypropylcellulose) (HPC)
[3] = endpoint: median tumor weight (est.), dose: 50.0 mg/kg/injection, schedule: Q07DX005 (ip), vehicle: Klucel (hydroxypropylcellulose) (HPC)
[4] = endpoint: median tumor weight (est.), dose: 100.0 mg/kg/injection, schedule: Q07DX005 (ip), vehicle: Klucel (hydroxypropylcellulose) (HPC)
[5] = endpoint: median tumor weight (est.), dose: 200.0 mg/kg/injection, schedule: Q07DX005 (ip), vehicle: Klucel (hydroxypropylcellulose) (HPC)
[6] = endpoint: median tumor weight (est.), dose: 25.0 mg/kg/injection, schedule: Q07DX005 (ip), vehicle: saline with Tween-80
[7] = endpoint: median tumor weight (est.), dose: 50.0 mg/kg/injection, schedule: Q07DX005 (ip), vehicle: saline with Tween-80
[8] = endpoint: median tumor weight (est.), dose: 100.0 mg/kg/injection, schedule: Q07DX005 (ip), vehicle: saline with Tween-80
[9] = endpoint: median tumor weight change, dose: 125.0 mg/kg/injection, schedule: Q01DX001 (ip), vehicle: saline with Tween-80

For CC/C(=C(\c1ccccc1)c1ccc(OCCN(C)C)cc1)c1ccccc1, the T/C (endpoint: mean tumor weight (est.), dose: 150.0 mg/kg/injection, schedule: Q07DX002 (ip), vehicle: saline) was 102 % of control, the T/C (endpoint: mean tumor weight (est.), dose: 200.0 mg/kg/injection, schedule: Q07DX002 (ip), vehicle: saline) was 100 % of control and the T/C (endpoint: mean tumor weight, dose: 100.0 mg/kg/injection, schedule: Q07DX007 (ip), vehicle: saline) was 45 % of control. The T/C (endpoint: mean tumor weight, dose: 150.0 mg/kg/injection, schedule: Q07DX008 (ip), vehicle: saline) was 52 % of control, the T/C (endpoint: mean tumor weight, dose: 200.0 mg/kg/injection, schedule: Q07DX007 (ip), vehicle: saline) was 15 % of control and the T/C (endpoint: mean tumor weight, dose: 200.0 mg/kg/injection, schedule: Q07DX008 (ip), vehicle: saline) was 31 % of control. The T/C (endpoint: median tumor weight change, dose: 25.0 mg/kg/injection, schedule: Q01DX001 (ip), vehicle: suspension in saline) was 105 % of control, the T/C (endpoint: median tumor weight change, dose: 50.0 mg/kg/injection, schedule: Q01DX001 (ip), vehicle: suspension in saline) was 111 % of control and the T/C (endpoint: median tumor weight change, dose: 100.0 mg/kg/injection, schedule: Q01DX001 (ip), vehicle: suspension in saline) was 150 % of control. For the same compound, the T/C (endpoint: median tumor weight change, dose: 200.0 mg/kg/injection, schedule: Q01DX001 (ip), vehicle: suspension in saline) was 158 % of control.
For O=[N+]([O-])/C=C\c1ccc2c(c1)OCO2, the T/C (endpoint: median tumor weight (est.), dose: 6.25 mg/kg/injection, schedule: Q07DX005 (ip), vehicle: Klucel (hydroxypropylcellulose) (HPC)) was 102 % of control, the T/C [1] was 59 % of control and the T/C [2] was 86 % of control. The T/C [3] was 60 % of control, the T/C [4] was 55 % of control and the T/C [5] was 83 % of control.
For Cc1ccc2c(ccc(CC(=S)[S-])[n+]2C)c1, the T/C [1] was 72 % of control and 97 % of control, the T/C [2] was 90 % of control and the T/C [3] was 102 % of control and 121 % of control. For the same compound, the T/C [4] was 46 % of control and 71 % of control and the T/C [5] was 32 % of control.
CCCCCNc1ncnc2c(C)[nH]nc12 was tested, and the T/C (endpoint: median tumor weight change, dose: 62.5 mg/kg/injection, schedule: Q01DX001 (ip), vehicle: Klucel (hydroxypropylcellulose) (HPC)) was 101 % of control, the T/C (endpoint: median tumor weight change, dose: 125.0 mg/kg/injection, schedule: Q01DX001 (ip), vehicle: Klucel (hydroxypropylcellulose) (HPC)) was 89 % of control and the T/C (endpoint: median tumor weight change, dose: 250.0 mg/kg/injection, schedule: Q01DX001 (ip), vehicle: Klucel (hydroxypropylcellulose) (HPC)) was 71 % of control.
For CC1(C)OC2C(COC(=O)c3ccc([N+](=O)[O-])cc3)OC(NC(=O)N(CCCl)N=O)C2O1 (stereo not drawn), the T/C (endpoint: median tumor weight (est.), dose: 1.25 mg/kg/injection, schedule: Q07DX005 (ip), vehicle: saline with Tween-80) was 46 % of control, the T/C [6] was 51 % of control and the T/C [7] was 16 % of control. For the same compound, the T/C [8] was 36 % of control.
O=C(C1CO1)C(Cl)(Cl)Cl (stereo not drawn) was tested, and the T/C (endpoint: median tumor weight change, dose: 4.0 mg/kg/injection, schedule: Q01DX001 (ip), vehicle: saline) was 81 % of control, the T/C (endpoint: median tumor weight change, dose: 8.0 mg/kg/injection, schedule: Q01DX001 (ip), vehicle: saline) was 72 % of control and the T/C (endpoint: median tumor weight change, dose: 16.0 mg/kg/injection, schedule: Q01DX001 (ip), vehicle: saline) was 68 % of control. The T/C (endpoint: median tumor weight change, dose: 125.0 mg/kg/injection, schedule: Q01DX001 (ip), vehicle: saline) was 34 % of control.
With Cc1cc(NCCCCCCNc2cc(C)nc3cc(N(C)C)ccc23)c2ccc(N(C)C)cc2n1 the T/C (endpoint: median tumor weight change, dose: 31.0 mg/kg/injection, schedule: Q01DX001 (ip), vehicle: distilled water + Tween-80 + alcohol) was 42 % of control, the T/C (endpoint: median tumor weight change, dose: 62.0 mg/kg/injection, schedule: Q01DX001 (ip), vehicle: distilled water + Tween-80 + alcohol) was 103 % of control and the T/C (endpoint: median tumor weight change, dose: 125.0 mg/kg/injection, schedule: Q01DX001 (ip), vehicle: distilled water + Tween-80 + alcohol) was 36 % of control.
For O=C(N[C@H](CO)[C@H](O)c1ccc([N+](=O)[O-])cc1)C(Cl)Cl, the T/C (endpoint: median tumor weight change, dose: 62.5 mg/kg/injection, schedule: Q01DX001 (ip), vehicle: saline with Tween-80) was 102 % of control, the T/C [9] was 91 % of control and the T/C (endpoint: median tumor weight change, dose: 250.0 mg/kg/injection, schedule: Q01DX001 (ip), vehicle: saline with Tween-80) was 92 % of control. For the same compound, the T/C (endpoint: median tumor weight change, dose: 500.0 mg/kg/injection, schedule: Q01DX001 (ip), vehicle: saline with Tween-80) was 73 % of control and the T/C (endpoint: median tumor weight change, dose: 1000.0 mg/kg/injection, schedule: Q01DX001 (ip), vehicle: saline with Tween-80) was 98 % of control.
In the case of CCc1ccc(C2=C(O)C(=O)C(c3ccc(CC)cc3)=C(O)C2=O)cc1, the T/C (endpoint: median tumor weight change, dose: 16.0 mg/kg/injection, schedule: Q01DX001 (ip), vehicle: saline with Tween-80) is reported as 88 % of control, the T/C (endpoint: median tumor weight change, dose: 31.0 mg/kg/injection, schedule: Q01DX001 (ip), vehicle: saline with Tween-80) is reported as 107 % of control and the T/C (endpoint: median tumor weight change, dose: 62.0 mg/kg/injection, schedule: Q01DX001 (ip), vehicle: saline with Tween-80) is reported as 92 % of control. The T/C [9] was 61 % of control.
In the case of CC1(C)CC1(Br)Br, the T/C (endpoint: median tumor weight (est.), dose: 12.5 mg/kg/injection, schedule: Q07DX005 (ip), vehicle: saline with Tween-80) is reported as 69 % of control, the T/C [6] is reported as 90 % of control and the T/C [7] is reported as 116 % of control. The T/C [8] was 59 % of control.

— PubChem BioAssay AID220 (DTP/NCI, 2004)
